The values that follow come from US4305942A, “Xanthine oxidase inhibitor and therapeutic treatment using same” (Siegfried Aktiengesellschaft, priority 1979, dated 1981).

For data set [1] the following is noted: cited from earlier work.
Data set [2] deals with T1, xanthine oxidase (Bos taurus, UniProt P80457).
T1 construct: purchased CALBIOCHEM 682151
As to the kind of experiment: xanthine oxidase inhibition in vitro (UV-spectrophotometric uric acid formation at 290 nm from hypoxanthine). The class given is biochemical. Particulars: for Inhibition (%) of xanthine oxidase: 6 minutes, ambient temperature. How it is done:
In the human in vivo metabolism the xanthine oxidase decomposes xanthine and hypoxanthine, respectively, to yield uric acid. This decomposition reaction can be perfectly simulated in vitro. For this purpose buffered solutions of (a) hypoxanthine, (b) xanthine oxidase and (c) the test substance are prepared. Solution (a) and (c) are mixed and filled into the cuvette of a UV-spectrophotometer. Solution (b) is then added into the cuvette. The UV-spectrophotometer is adjusted to 290 nm, i.e. to one of the main absorption lines of uric acid. Registration of the intensity of the 290 nm line is commenced immediately upon adding solution (b), i.e., upon adding the xanthine oxidase solution. The measurement is continued for exactly 6 minutes. For each test substance a certain number of measurements is carried out at varying concentrations of the test substance. The registered intensity values obtained after a certain time, here after 6 minutes, are compared to a standard registration containing as a solution (c) a blank buffer solution.
For the present measurements the UV-spectrophotometer used is a ZEISS PM Q II.
Solution (a) is 1 ml hypoxanthine puriss (FLUKA No. 56700) dissolved in a concentration of 1.5×10^-4 moles/liter in a 0.067 molar phosphate buffer solution having a pH of 7.4.
Solution (b) is 1 ml xanthine oxidase (CALBIOCHEM No. 682151) having a specific activity of 2.65 I.U./ml at 30° C., and is diluted in a ratio of 1:200 in the same phosphate buffer as used in solution (a).
Solution (c) is 1 ml of blank phosphate buffer for controls (standards) and a solution of the test substance dissolved in said phosphate buffer in varying concentrations, respectively.
The spectrophotometric measurements are carried out at ambient temperature.

Like-named read-outs stand apart in the source and are kept apart here.

T1 sequence (P80457 whole entry): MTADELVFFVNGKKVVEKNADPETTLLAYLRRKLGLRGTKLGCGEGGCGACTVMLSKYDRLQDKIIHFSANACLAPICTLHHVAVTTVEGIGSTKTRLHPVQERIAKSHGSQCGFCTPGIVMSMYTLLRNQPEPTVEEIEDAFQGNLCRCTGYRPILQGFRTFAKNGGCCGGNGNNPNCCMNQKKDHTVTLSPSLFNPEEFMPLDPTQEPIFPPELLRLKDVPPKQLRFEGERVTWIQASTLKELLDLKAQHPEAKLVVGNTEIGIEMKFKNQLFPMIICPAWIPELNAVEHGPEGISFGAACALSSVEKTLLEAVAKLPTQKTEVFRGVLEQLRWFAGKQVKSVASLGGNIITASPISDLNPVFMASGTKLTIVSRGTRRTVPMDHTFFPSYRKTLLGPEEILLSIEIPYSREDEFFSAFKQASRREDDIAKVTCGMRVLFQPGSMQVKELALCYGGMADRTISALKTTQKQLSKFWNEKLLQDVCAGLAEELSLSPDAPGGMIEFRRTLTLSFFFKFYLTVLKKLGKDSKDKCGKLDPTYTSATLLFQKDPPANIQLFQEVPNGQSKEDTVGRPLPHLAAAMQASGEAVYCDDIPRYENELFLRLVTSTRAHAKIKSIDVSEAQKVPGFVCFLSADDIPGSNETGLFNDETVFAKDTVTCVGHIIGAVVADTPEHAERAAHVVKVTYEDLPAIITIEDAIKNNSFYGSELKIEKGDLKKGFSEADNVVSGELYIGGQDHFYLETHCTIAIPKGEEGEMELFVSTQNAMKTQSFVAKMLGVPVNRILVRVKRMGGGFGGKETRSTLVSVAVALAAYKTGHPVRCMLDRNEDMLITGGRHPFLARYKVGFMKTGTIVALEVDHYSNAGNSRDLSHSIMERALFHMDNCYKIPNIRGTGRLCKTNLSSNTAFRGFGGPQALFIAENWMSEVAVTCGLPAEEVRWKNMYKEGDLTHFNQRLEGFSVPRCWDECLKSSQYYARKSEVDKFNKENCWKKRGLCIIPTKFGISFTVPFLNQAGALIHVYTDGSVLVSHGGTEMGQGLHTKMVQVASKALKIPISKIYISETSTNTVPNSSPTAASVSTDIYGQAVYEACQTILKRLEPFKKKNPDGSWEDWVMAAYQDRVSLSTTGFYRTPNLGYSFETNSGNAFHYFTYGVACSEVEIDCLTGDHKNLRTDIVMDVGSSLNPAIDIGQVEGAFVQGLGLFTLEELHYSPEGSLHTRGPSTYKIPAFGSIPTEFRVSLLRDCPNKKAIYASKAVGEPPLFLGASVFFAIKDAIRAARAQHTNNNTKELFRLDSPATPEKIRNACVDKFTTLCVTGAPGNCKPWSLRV

As for `Oc1ncnc2[nH]ncc12` [allopurinol], the plasma level in data set [1] (300 mg/d allopurinol orally in one single portion) was 2000 ng/mL.
By IC50 is commonly meant the midpoint of a concentration-inhibition curve. A low value points to higher potency. On to `CCCC1C(=O)N2C(N(C)C)=Nc3ccc(C)cc3N2C1=O` (stereo not shown) [azapropazone, 3-dimethylamino-7-methyl-1,2-(n-propylmalonyl)-1,2-dihydro-1,2,4-benzotriazine dihydrate], for which the “Inhibition (%) of xanthine oxidase” value is 20% in data set [2] (1.25 × 10^-5 moles/liter azapropazone, pH 7.4); 35% in data set [2] (2.50 × 10^-5 moles/liter azapropazone, pH 7.4); 55% in data set [2] (5.00 × 10^-5 moles/liter azapropazone, pH 7.4). In addition, the IC50 in data set [2] (50% inhibition concentration (xanthine oxidase), IC50 expressed in μg/ml) was 44.9 µM; in data set [2] (50% inhibitive concentration IC50 (xanthine oxidase), interpolated from inhibition values, hypoxanthine substrate, pH 7.4), 40 µM. The plasma level in data set [1] (1000 mg/d azapropazone orally in one single portion) is 80800 ng/mL.
